pEC50: −log10 of the molar value. Where two headings read alike, the source gives them in different places.
Experiments:
[1] = tested on: ovarian cancer (4 cell lines); assay: CellTiter-Glo Viability Assay, ovarian cancer; assay type: cell-based; conditions: Homo sapiens, inhibition of cancer cell proliferation
Description: (§1) Fifty-one human cancer cell lines (breast cancer (8 cell lines), colorectal cancer (6 cell lines), haematopoietic & lymphoid tumors (13 cell lines), liver cancer (3 cell lines), lung cancer (4 cell lines), ovarian cancer (4 cell lines), pancreatic cancer (8 cell lines), and prostate cancer (5 cell lines)) were tested to determine the effects of representative compounds of Formulas (I)-(XII) on cellular proliferation, as evaluated using the CellTiter-Glo® Viability Assay.
(§2) For the Cell Viability Assays, cells were plated at 300-3,000 cells/well in 384-well plates in their respective media containing 1% Penicillin-Streptomycin and incubated for four days at 37° C. and 5% CO2. Twenty-eight replicates of DMSO-treated cells served as controls and cells treated with compound were performed in duplicate.
(§3) After incubation, 10 μL of CellTiter-Glo® (Promega) was added to each well allowed to incubate for approximately 12 minutes. This reagent results in cell lysis and generation of a luminescent signal proportional to the amount of ATP present. The amount of ATP is directly proportional to the number of metabolically active, viable cells present in culture. The CellTiter-Glo® Assay generates a luminescent signal, produced by the luciferase reaction (Promega.com).
(§4) After incubation, the luminescence signal was read using an EnVision™ Multilabel Plate Reader (Perkin Elmer). Dose-response curves were generated and EC50 concentration values were calculated using Dotmatics' Studies Software (Bishops Stortford, UK).

[2] = tested on: liver cancer (3 cell lines); assay: CellTiter-Glo Viability Assay, liver cancer; assay type: cell-based; conditions: Homo sapiens, inhibition of cancer cell proliferation
Description: as §1, §2, §3, §4

[3] = target: T1, CLK2 (Homo sapiens, UniProt P49760); assay: CLK2 kinase activity assay (Z-lyte, Ser/Thr 6 peptide); assay type: biochemical; conditions: recombinant CLK2 kinase, ATP 60 μM; read-out: EC50
T1 construct: purchased Thermo Fisher (Life Technologies), Z'-LYTE Kinase Assay Kits
Description: All reactions were performed in duplicate.

[4] = tested on: BT-549; assay: CellTiter-Glo Viability Assay, breast cancer; assay type: cell-based; conditions: Homo sapiens, 96 h; BT-549, breast cancer, four days; read-out: EC50
Description: as §1, §2, §3, §4

[5] = tested on: ZR-75-1; assay: CellTiter-Glo Viability Assay, breast cancer; assay type: cell-based; conditions: Homo sapiens, 96 h; ZR-75-1, breast cancer, four days; read-out: EC50
Description: as §1, §2, §3, §4

[6] = tested on: CAMA1; assay: CellTiter-Glo Viability Assay, breast cancer; assay type: cell-based; conditions: Homo sapiens, CAMA-1, 96 h; CAMA1, breast cancer, four days; read-out: EC50
Description: as §1, §2, §3, §4

[7] = tested on: HCC1599; assay: CellTiter-Glo Viability Assay, breast cancer; assay type: cell-based; conditions: Homo sapiens, 96 h; HCC1599, breast cancer, four days; read-out: EC50
Description: as §1, §2, §3, §4

[8] = tested on: DU4475; assay: CellTiter-Glo Viability Assay, breast cancer; assay type: cell-based; conditions: Homo sapiens, DU-4475, 96 h; DU4475, breast cancer, four days; read-out: EC50
Description: as §1, §2, §3, §4

[9] = tested on: T47D; assay: CellTiter-Glo Viability Assay, breast cancer; assay type: cell-based; conditions: Homo sapiens, 96 h, breast cancer, four days, read-out: EC50
Description: as §1, §2, §3, §4

[10] = tested on: MCF7; assay: CellTiter-Glo Viability Assay, breast cancer; assay type: cell-based; conditions: Homo sapiens, 96 h; MCF7, breast cancer, four days; read-out: EC50
Description: as §1, §2, §3, §4

[11] = target: CLK3 (Homo sapiens, UniProt P49761); assay: CLK3 kinase activity assay (Z-lyte, Ser/Thr 18 peptide)
[12] = tested on: pancreatic cancer (8 cell lines); assay: CellTiter-Glo Viability Assay, pancreatic cancer; assay type: cell-based; conditions: Homo sapiens, inhibition of cancer cell proliferation
Description: as §1, §2, §3, §4

[13] = tested on: prostate cancer (5 cell lines); assay: CellTiter-Glo Viability Assay, prostate cancer; assay type: cell-based; conditions: Homo sapiens
Description: as §1, §2, §3, §4

[14] = tested on: lung cancer (4 cell lines); assay: CellTiter-Glo Viability Assay, lung cancer; assay type: cell-based; conditions: Homo sapiens, inhibition of cancer cell proliferation
Description: as §1, §2, §3, §4

[15] = tested on: haematopoietic & lymphoid tumors (13 cell lines); assay: CellTiter-Glo Viability Assay, haematopoietic & lymphoid tumors; assay type: cell-based; conditions: Homo sapiens, inhibition of cancer cell proliferation
Description: as §1, §2, §3, §4

[16] = tested on: all 50 cell lines; assay: CellTiter-Glo Viability Assay, average across all cell lines; assay type: cell-based; conditions: Homo sapiens; across all 50 cell lines; read-out: average EC50 for inhibition of cancer cell proliferation
Description: as §1, §2, §3, §4

[17] = tested on: colorectal cancer (6 cell lines); assay: CellTiter-Glo Viability Assay, colorectal cancer; assay type: cell-based; conditions: Homo sapiens, inhibition of cancer cell proliferation
Description: as §1, §2, §3, §4

T1 sequence (P49760 whole entry): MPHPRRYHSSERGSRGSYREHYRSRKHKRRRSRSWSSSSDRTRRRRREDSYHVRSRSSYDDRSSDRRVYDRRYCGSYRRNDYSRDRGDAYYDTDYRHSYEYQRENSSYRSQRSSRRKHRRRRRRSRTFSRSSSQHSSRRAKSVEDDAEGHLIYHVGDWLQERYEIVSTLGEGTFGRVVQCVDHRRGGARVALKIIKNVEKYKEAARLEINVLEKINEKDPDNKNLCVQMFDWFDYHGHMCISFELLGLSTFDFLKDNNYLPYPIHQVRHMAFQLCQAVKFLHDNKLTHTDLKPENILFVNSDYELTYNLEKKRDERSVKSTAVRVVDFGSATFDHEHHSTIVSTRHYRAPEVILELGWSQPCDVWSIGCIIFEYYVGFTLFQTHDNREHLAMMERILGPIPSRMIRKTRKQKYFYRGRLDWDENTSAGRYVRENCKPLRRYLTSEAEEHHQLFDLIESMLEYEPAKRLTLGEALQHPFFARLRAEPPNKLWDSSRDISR
Chain of CLK3 (P49761 whole entry): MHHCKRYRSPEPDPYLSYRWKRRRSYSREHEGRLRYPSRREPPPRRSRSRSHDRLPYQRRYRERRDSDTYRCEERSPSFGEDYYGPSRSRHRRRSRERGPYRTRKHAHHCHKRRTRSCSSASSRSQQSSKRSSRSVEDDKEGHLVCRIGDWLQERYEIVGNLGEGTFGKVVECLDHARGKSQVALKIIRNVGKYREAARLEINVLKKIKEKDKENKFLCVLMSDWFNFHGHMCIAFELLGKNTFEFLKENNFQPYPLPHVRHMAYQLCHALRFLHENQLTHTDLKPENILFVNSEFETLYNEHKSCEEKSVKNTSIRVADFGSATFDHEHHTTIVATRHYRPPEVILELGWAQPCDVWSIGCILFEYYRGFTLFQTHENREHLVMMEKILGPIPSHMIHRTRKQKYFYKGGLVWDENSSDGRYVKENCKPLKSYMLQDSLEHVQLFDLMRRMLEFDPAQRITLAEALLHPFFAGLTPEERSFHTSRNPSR

## CN1CCN(c2cc(C(=O)Nc3cc4cc(-c5cn(C)nn5)ccc4cn3)ccn2)CC1 [Compound 14]
[1]; PA-1, PA1 cell line, read-out: Ovarian cancer, EC50 (μM) PA1
  EC50: 0.186 µM
[1]; TOV112D, TOV-112D cell line, read-out: Ovarian cancer, EC50 (μM) TOV-112D
  EC50: 0.171 µM
[1]; OV-90 cell line, read-out: Ovarian cancer, EC50 (μM) OV-90
  EC50: 0.464 µM
[1]; OVCAR-3 cell line, read-out: Ovarian cancer, EC50 (μM) OVCAR-3
  EC50: 0.116 µM
[2]; SNU-398, SNU398 cell line, read-out: Liver cancer, EC50 SNU398
  pEC50: 7.16
[2]; HEPG2 cell line, read-out: Liver cancer, EC50 HEPG2
  pEC50: 6.37
[2]; PLC/PRF/5 cell line, read-out: Liver cancer, EC50 PLC/PRF/5
  pEC50: 6.27
[3]
  pEC50: 8.70
[4]
  pEC50: 6.47
[5]
  pEC50: 6.39
[6]
  pEC50: 6.48
[7]
  pEC50: 6.78
[8]
  pEC50: 6.86
[9]
  pEC50: 6.30
[10]
  pEC50: 6.14
[11]
  pEC50: 7.62
[12]; BXPC-3, BxPC3 cell line, read-out: Pancreatic cancer, EC50 BxPC3
  pEC50: 6.32
[12]; CAPAN-1, Capan1 cell line, read-out: Pancreatic cancer, EC50 Capan1
  pEC50: 6.65
[12]; Capan-2, Capan2 cell line, read-out: Pancreatic cancer, EC50 Capan2
  pEC50: 6.33
[12]; MIA PaCa-2 cell line, read-out: Pancreatic cancer, EC50 MIA PaCa-2
  pEC50: 6.87
[12]; PANC 05.04 cell line, read-out: Pancreatic cancer, EC50 PANC 05.04
  pEC50: 6.49
[12]; PANC-1 cell line, read-out: Pancreatic cancer, EC50 PANC-1
  pEC50: 6.37
[12]; UPAFII cell line, read-out: Pancreatic cancer, EC50 UPAFII
  pEC50: 6.80
[13]; DU-145, read-out: Prostate cancer EC50 Du-145
  pEC50: 6.49
[13]; PC-3, PC3 cell line, inhibition of cancer cell proliferation, read-out: Prostate cancer EC50 PC3
  pEC50: 6.62
[13]; 22Rv1 cell line, inhibition of cancer cell proliferation, read-out: Prostate cancer EC50 22Rv1
  pEC50: 6.58
[13]; LNCap clone FGC cell line, inhibition of cancer cell proliferation, read-out: Prostate cancer EC50 LNCap clone FGC
  pEC50: 6.37
[13]; VCaP (Sigma) cell line, inhibition of cancer cell proliferation, read-out: Prostate cancer EC50 VCaP (Sigma)
  pEC50: 6.23
[14]; A-427, A427 cell line, read-out: Lung cancer, EC50 (μM) A427
  EC50: 0.303 µM
[14]; HCC78, HCC-78 cell line, read-out: Lung cancer, EC50 (μM) HCC-78
  EC50: 0.467 µM
[14]; NCI-H460 cell line, read-out: Lung cancer, EC50 (μM) NCI-H460
  EC50: 0.268 µM
[14]; NCI-H522 cell line, read-out: Lung cancer, EC50 (μM) NCI-H522
  EC50: 0.142 µM
[15]; DND41, DND-41 cell line, read-out: Haematopoietic & Lymphoid tumors, EC50 (μM) DND-41
  EC50: 0.216 µM
[15]; MV4-11, MV-4-11 cell line, read-out: Haematopoietic & Lymphoid tumors, EC50 (μM) MV-4-11
  EC50: 0.101 µM
[15]; Rec1, REC-1 cell line, read-out: Haematopoietic & Lymphoid tumors, EC50 (μM) REC-1
  EC50: 0.08 µM
[15]; SU-DHL-4, SUDHL4 cell line, read-out: Haematopoietic & Lymphoid tumors, EC50 (μM) SUDHL4
  EC50: 0.317 µM
[15]; HL-60 cell line, read-out: Haematopoietic & Lymphoid tumors, EC50 (μM) HL-60
  EC50: 0.719 µM
[15]; JM1 cell line, read-out: Haematopoietic & Lymphoid tumors, EC50 (μM) JM1
  EC50: 0.093 µM
[15]; JURKAT, Clone E6-1 cell line, read-out: Haematopoietic & Lymphoid tumors, EC50 (μM) JURKAT, Clone E6-1
  EC50: 0.511 µM
[15]; JeKo-1 cell line, read-out: Haematopoietic & Lymphoid tumors, EC50 (μM) JeKo-1
  EC50: 0.073 µM
[15]; KASUMI-1 cell line, read-out: Haematopoietic & Lymphoid tumors, EC50 (μM) KASUMI-1
  EC50: 0.174 µM
[15]; Loucy cell line, read-out: Haematopoietic & Lymphoid tumors, EC50 (μM) Loucy
  EC50: 0.192 µM
[15]; MOLT-4 cell line, read-out: Haematopoietic & Lymphoid tumors, EC50 (μM) MOLT-4
  EC50: 0.327 µM
[15]; TF-1 cell line, read-out: Haematopoietic & Lymphoid tumors, EC50 (μM) TF-1
  EC50: 0.367 µM
[15]; TOLEDO cell line, read-out: Haematopoietic & Lymphoid tumors, EC50 (μM) TOLEDO
  EC50: 0.104 µM
[16]
  pEC50: 6.54
[17]; HCT-116, HCT116 cell line, read-out: Colorectal cancer, EC50 (μM) HCT116
  EC50: 0.14 µM
[17]; HT-29, HT29 cell line, read-out: Colorectal cancer, EC50 (μM) HT29
  EC50: 0.295 µM
[17]; SW-620, SW620 cell line, read-out: Colorectal cancer, EC50 (μM) SW620
  EC50: 0.113 µM
[17]; DLD-1 cell line, read-out: Colorectal cancer, EC50 (μM) DLD-1
  EC50: 0.161 µM
[17]; SW48 cell line, read-out: Colorectal cancer, EC50 (μM) SW48
  EC50: 0.096 µM
[17]; SW480 cell line, read-out: Colorectal cancer, EC50 (μM) SW480
  EC50: 0.191 µM

— patent US20220062240A1, “METHODS OF TREATING CANCER USING A CLK INHIBITOR” (BioSplice Therapeutics, Inc., priority 2018, published 2022)
